Test results: patent publication US20210137809A1, “COSMETIC COMPOSITION FOR WRINKLE REDUCTION OR ANTI-INFLAMMATION, CONTAINING SUBSTANCE P” (Biosolution Co., Ltd, priority 2017, published 2021)

Legend:
nitric oxide (NO) = assay: Nitric oxide (NO)-reducing effect in LPS-treated Raw 264.7 cells (Griess reagent); format: cell-based, mouse; settings: 100 ng/mL LPS, 24-hr culture, maximum decrease (up to), LPS only = 100%, FIG. 6
Description: In inflammatory environments, the nitric oxide (NO)-reducing effect of the composition including substance P was examined in Raw 264.7 cells which are mouse macrophages. […] were put in a 24-well plate at a density of 4×10^5 CFU/well, and incubated at 37° C. for 24 hours. A growth medium for Raw 264.7 cells was prepared by mixing DMEM (Welgene, Korea) with 200 mM of L-glutamine (Gibco, USA). After 24-hr culture, the medium was removed, and then 1 mL of a fresh medium was dispensed into each well. […] In this regard, the concentration of the composition or the substance P added was determined such that its final concentration became a desired concentration, taking into consideration the total volume of the medium.
After 24-hr culture, the supernatant was collected, and 100 μL thereof was added to a 96-well plate, and an equal volume of Griess reagent (Sigma, USA) was added thereto, and the plate was left at room temperature for 15 minutes. Then, absorbance at 540 nm was measured. […] The production amount of nitric oxide (NO) in the group treated with LPS only was regarded as 100%, and the amount of nitric oxide (NO) in the medium was determined.
Significant NO reduction was determined using Student's t-test by comparing the NO amount practically measured in the experimental group with that of the LPS-treated group (*p<0.05, **p<0.01).

[1] = system: inflammatory cytokine IL-6; assay: Inflammatory cytokine IL-6-reducing effect in LPS-treated Raw 264.7 cells; format: cell-based, mouse; settings: 100 ng/mL LPS, 24-hr culture, maximum decrease (up to) relative to LPS-treated group, FIG. 5
Description: The inflammatory cytokine IL-6-reducing effect of the composition including substance P was examined in Raw 264.7 cells which are mouse macrophages. […] were put in a 24-well plate at a density of 4×10^5 CFU/well, and incubated at 37° C. for 24 hours. A growth medium for Raw 264.7 cells was prepared by mixing DMEM (Welgene, Korea) with 200 mM of L-glutamine (Gibco, USA). After 24-hr culture, the medium was removed, and then 1 mL of a fresh medium was dispensed into each well. To induce intracellular inflammation, 100 ng/mL of LPS (Sigma, USA) was treated thereto, and simultaneously, the composition including substance P or substance P dissolved in a phosphate buffer solution (PBS) was dispensed thereto such that the final volume was 2 mL/well, followed by incubation at 37° C. for 24 hours. In this regard, the concentration of the composition or the substance P added was determined such that its final concentration became a desired concentration, taking into consideration the total volume of the medium. After 24-hr culture, the supernatant was collected, and the amount of inflammatory cytokine IL-6 in the medium was measured by mouse IL-6 immunoassay (R&D systems, USA).
Significant IL-6 reduction was determined using Student's t-test by comparing the IL-6 amount practically measured in the experimental group with that of the LPS-treated group (*p<0.05, **p<0.01).

[2] = system: collagen synthesis in Human skin fibroblasts; assay: Collagen synthesis effect in skin fibroblasts (Procollagen Type1-Peptide EIA); format: cell-based; settings: 24-hr culture, maximum increase (up to) relative to PBS control, FIG. 3
Description: (§1) The collagen synthesis effect of the composition containing substance P was examined in skin fibroblasts. Human skin fibroblasts were put in a 96-well plate at a density of 3×10^4 CFU/well, and incubated at 37° C. for 24 hours. The medium (FGM, Lonza, USA) was removed, and then 180 μL of a fresh medium was dispensed into each well, and 20 μL of the composition containing substance P or substance P dissolved in a phosphate buffer solution (PBS) was added thereto, followed by incubation at 37° C. for 24 hours. In this regard, the concentration of the composition or the substance P added was determined such that its final concentration became a desired concentration, taking into consideration the total volume of the medium. After 24-hr culture, the supernatant was collected, and the amount of collagen in the medium was measured using a Procollagen Type1-Peptide (PIP) EIA kit (TaKaRa, Japan).
The difference was statistically significant. Statistical analysis was performed using Student's t-test, and the effects of experimental groups (*p<0.05, **p<0.01) relative to the control (phosphate buffer solution-treated group) and the effects of substance P dissolved in phosphate buffer solution and the composition of the present invention (#p<0.05, ##<0.01) were compared.

collagenase (MMP-1) = assay: Collagenase (MMP-1) inhibition effect in skin fibroblasts (Human total MMP-1 kit); format: cell-based; settings: 24-hr culture, maximum decrease (up to) relative to PBS control, FIG. 4
Description: as §1, with “collagenase (MMP-1) inhibition” for “collagen synthesis”, “including” for “containing”, “collagenase (MMP-1)” for “collagen”, “Human total MMP-1” for “Procollagen Type1-Peptide (PIP) EIA”, “(R&D systems, USA).” for “(TaKaRa, Japan).”
The difference was statistically significant. Statistical analysis was performed using Student's t-test, and the MMP-1 production of each experimental group (*p<0.05, **p<0.01) relative to the control (phosphate buffer solution-treated group) and the MMP-1 productions by substance P dissolved in phosphate buffer solution and the composition of the present invention (#p<0.05, ##p<0.01) were compared.

With “Arg-Pro-Lys-Pro-Gln-Gln-Phe-Phe-Gly-Leu-Met-NH2 [substance P]” the “decrease of amount of NO induced by LPS” value (nitric oxide (NO)) was “about 10%”, the “decrease of amount of IL-6 induced by LPS” value [1] was “about 20%” and the collagen synthesis increase [2] was “about 20%”. For the same substance, the “collagenase (MMP-1) production decrease” value (collagenase (MMP-1)) was “about 20%”.
